Assay results from the supplement of paper PMC11562712.

Experiment: first-order primary biodegradation rate constant k (sorption-corrected, fDis-corrected) (d-1); higher = faster biodegradation
Method: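 Modified OECD 309 water-sediment test. River water plus sieved sediment (50 g wet solid/L) from European river segments (DE, CH, ES, EL) was spiked with a mixture of 129 compounds at 1 ug/L each and incubated in the dark at river temperature for 10 days. The water phase was analysed by UHPLC-Orbitrap-MS. The first-order primary biodegradation rate constant k (d-1) is k_observed, corrected for dissipation in sterile sorption controls and divided by the dissolved fraction fDis; it was fitted over 3 replicate incubations. Invalid fits (p > 0.05, n < 5, not available, concentration increase) are excluded.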

[1] = river segment: Germany (DE) H_Contam, incubation temperature 24 °C
[2] = river segment: Germany (DE) T_Contam, incubation temperature 24 °C
[3] = river segment: Germany (DE) T_Pris, incubation temperature 24 °C
[4] = river segment: Greece (EL) A_Contam, incubation temperature 19 °C
[5] = river segment: Greece (EL) G_Contam, incubation temperature 19 °C
[6] = river segment: Greece (EL) G_Pris, incubation temperature 19 °C
[7] = river segment: Greece (EL) L_Contam, incubation temperature 19 °C
[8] = river segment: Spain (ES) B_Contam, incubation temperature 24 °C
[9] = river segment: Spain (ES) C_Contam, incubation temperature 24 °C
[10] = river segment: Spain (ES) F_Pris_Salt, incubation temperature 24 °C
[11] = river segment: Spain (ES) L_Contam, incubation temperature 24 °C
[12] = river segment: Switzerland (CH) C_Contam, incubation temperature 17 °C
[13] = river segment: Switzerland (CH) R_Contam, incubation temperature 17 °C
[14] = river segment: Switzerland (CH) U_Contam, incubation temperature 17 °C
[15] = river segment: Switzerland (CH) U_Pris, incubation temperature 17 °C

first-order primary biodegradation rate constant k [1]	first-order primary biodegradation rate constant k [2]	first-order primary biodegradation rate constant k [3]	first-order primary biodegradation rate constant k [4]	first-order primary biodegradation rate constant k [5]	first-order primary biodegradation rate constant k [6]	first-order primary biodegradation rate constant k [7]	first-order primary biodegradation rate constant k [8]	first-order primary biodegradation rate constant k [9]	first-order primary biodegradation rate constant k [10]	first-order primary biodegradation rate constant k [11]	first-order primary biodegradation rate constant k [12]	first-order primary biodegradation rate constant k [13]	first-order primary biodegradation rate constant k [14]	first-order primary biodegradation rate constant k [15]	Structure (SMILES)
0.132	0.195	0.076	0.193	0.107	0.0804	0.337	0.147	0.232	0.0178	0.217	0.0406	0.0937	0.108	0.171	CC(C)NCC(O)c1ccc(NS(C)(=O)=O)cc1 (stereo unspecified) [Sotalol]
1.43			0.277	1.93		5.22				0.469	6.13	0.288	0.0899		CCCCC(CC)COCC(O)CO (stereo unspecified) [3-((2-Ethylhexyl)oxy)propane-1,2-diol]
0.108	0.441	0.226	0.537	0.0301	0.36	0.285	0.235	0.269	0.0247	0.368	1.07	0.829	1.21	2.62	CC(C(=O)O)c1cccc(C(=O)c2ccccc2)c1 (stereo unspecified) [Ketoprofen]
0.127	0.147	0.044	0.283	0.119	0.286	0.166				0.0944			0.0756	0.0899	CN(C)C(=O)Nc1ccc(Cl)c(Cl)c1 [Diuron]
	0.282			9.42			0.421	0.0396	0.0487		0.0523		1.6	0.68	CC(C)(C)C(=O)C(Oc1ccc(Cl)cc1)n1ccnc1 (stereo unspecified) [Climbazole]
3.99		8.59				6.29			6.23			18			CN(Cc1cnc2nc(N)nc(N)c2n1)c1ccc(C(=O)N[C@@H](CCC(=O)O)C(=O)O)cc1 [Methotrexate]
0.498	28.6	17.5	6.6	1.42	28.8	3.75	1.57	0.0642	0.103	3.75	0.639	0.559	0.756	0.596	CNC(=C[N+](=O)[O-])NCCSCc1ccc(CN(C)C)o1 [Ranitidine]
0.0829	0.171	0.0275	0.168		0.0968	0.114	0.359	0.149	0.0149	0.229	0.0405	0.336	0.155	0.0826	NS(=O)(=O)c1cc(C(=O)O)c(NCc2ccco2)cc1Cl [Furosemide]
	0.145	0.00509	0.115	0.0195	0.102	0.0444	0.76	0.248	0.076	0.413		0.141	0.0814		COc1ccc2cc([C@H](C)C(=O)O)ccc2c1 [Naproxen]
			0.191				1.27	0.157		0.293		0.0997			CC1=CC(=O)NS(=O)(=O)O1 [Acesulfame]
0.024	0.00573			0.311		0.0588							0.00361		OC(Cn1cncn1)(Cn1cncn1)c1ccc(F)cc1F [Fluconazole]
0.387	1.31	0.365	1.16	0.652	2.31	1.2	0.38	0.286	0.221	0.565	0.44	0.57	0.383	1.15	NC(=O)c1cn(Cc2c(F)cccc2F)nn1 [Rufinamide]
0.0317	0.223	0.0464	0.826			0.0837		0.261	0.0914	1.66	0.205	0.379	0.24	0.0988	O=S(=O)(O)NC1CCCCC1 [Cyclamate]
	0.109								0.107	0.229	0.0368		0.0133	0.1	COc1c(Cl)ccc(Cl)c1C(=O)O [Dicamba]

Structure (SMILES)	first-order primary biodegradation rate constant k [1]	first-order primary biodegradation rate constant k [2]	first-order primary biodegradation rate constant k [3]	first-order primary biodegradation rate constant k [4]	first-order primary biodegradation rate constant k [5]	first-order primary biodegradation rate constant k [6]	first-order primary biodegradation rate constant k [7]	first-order primary biodegradation rate constant k [8]	first-order primary biodegradation rate constant k [9]	first-order primary biodegradation rate constant k [10]	first-order primary biodegradation rate constant k [11]	first-order primary biodegradation rate constant k [12]	first-order primary biodegradation rate constant k [13]	first-order primary biodegradation rate constant k [14]	first-order primary biodegradation rate constant k [15]
COCC(C)N(C(=O)CCl)c1c(C)csc1C (stereo unspecified) [Dimethenamid]		0.036		0.0238			0.014				0.0244		0.0163	0.0318	0.0152
COc1cccc(C2(O)CCCCC2CN(C)C)c1 (stereo unspecified) [Tramadol]	0.0149	0.058	0.00925	0.0025		0.0141	0.0437	0.00653	0.00694		0.00992		0.00497	0.0131	0.0152
COc1ccc(C(CN(C)C)C2(O)CCCCC2)cc1 (stereo unspecified) [Venlafaxine]				1.22	0.204		1.2	0.0466			0.0394	0.00206		0.0953	
